Source: patent US10617680B2 (CELGENE QUANTICEL RESEARCH, INC., priority 2017, dated 2020)

Target: CBP (Homo sapiens (Human), UniProt Q92793)
Assay: In vitro CBP inhibition (AlphaScreen, biotinylated H4-tetraacetyl peptide)
Assay type: binding
Conditions: AlphaScreen, Table 29; read-out: CBP IC50
Procedure, shortened: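 His-tagged CBP expressed in E. coli (50 nM final) incubated with biotinylated H4K5/8/12/16(Ac) peptide (20 nM final) in 50 mM HEPES pH 7.3, 10 mM NaCl, 0.25 mM TCEP, 0.1% BSA, 0.005% Brij-35, 0.4% DMSO, 20 min at room temp.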

Sequence of CBP (Q92793 1081-1197): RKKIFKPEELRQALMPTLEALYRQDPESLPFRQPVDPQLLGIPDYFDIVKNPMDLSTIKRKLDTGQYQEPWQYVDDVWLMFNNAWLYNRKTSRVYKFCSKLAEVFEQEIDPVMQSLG

SMILES | IC50
CCOc1cc(=O)n(C)cc1-c1cnn(-c2cc(OC)ccc2C(=O)O)c1 [Example 247, 2-[4-(4-Ethoxy-1-methyl-6-oxo-1,6-dihydro-pyridin-3-yl)-pyrazol-1-yl]-4-methoxy-benzoic acid] | < 500 nM
CCOc1cc(=O)n(C)cc1-c1cnn(-c2cc(OC3CC3)ccc2C(=O)O)c1 [Example 248, 4-Cyclopropoxy-2-[4-(4-ethoxy-1-methyl-6-oxo-1,6-dihydro-pyridin-3-yl)-pyrazol-1-yl]-benzoic acid] | < 500 nM
CCOc1cc(=O)n(C)cc1-c1cnn(-c2ccccc2C(=O)O)c1 [Example 249, 2-(4-(4-ethoxy-1-methyl-6-oxo-1,6-dihydropyridin-3-yl)-1H-pyrazol-1-yl)benzoic acid] | < 500 nM
CCOc1cc(=O)n(C)cc1-c1cnn(-c2cccc(C#N)c2)c1 [Example 251, 3-(4-(4-ethoxy-1-methyl-6-oxo-1,6-dihydropyridin-3-yl)-1H-pyrazol-1-yl)benzonitrile] | < 500 nM
CCOc1cc(=O)n(C)cc1-c1cnn(-c2ccccc2F)c1 [Example 252, 4-ethoxy-5-(1-(2-fluorophenyl)-1H-pyrazol-4-yl)-1-methylpyridin-2(1H)-one] | < 500 nM
CCOc1cc(=O)n(C)cc1-c1cnn(-c2ccccn2)c1 [Example 253, 4-ethoxy-1-methyl-5-(1-(pyridin-2-yl)-1H-pyrazol-4-yl)pyridin-2(1H)-one] | < 500 nM
Cc1cc(-c2cnn(-c3ccccc3C#N)c2)cn(C)c1=O [Example 254, 2-[4-(1,5-Dimethyl-6-oxo-1,6-dihydro-pyridin-3-yl)-pyrazol-1-yl]-benzonitrile] | < 500 nM
Cc1cc(-c2cnn(-c3ccccc3C(=O)O)c2)cn(C)c1=O [Example 255, 2-[4-(1,5-Dimethyl-6-oxo-1,6-dihydro-pyridin-3-yl)-pyrazol-1-yl]-benzoic acid] | < 500 nM
CCc1cc(-c2cnn(-c3ccccc3C#N)c2)cn(C)c1=O [Example 256, 2-[4-(5-Ethyl-1-methyl-6-oxo-1,6-dihydro-pyridin-3-yl)-pyrazol-1-yl]-benzonitrile] | < 500 nM
CCc1cc(-c2cnn(-c3ccccc3C(=O)O)c2)cn(C)c1=O [Example 257, 2-[4-(5-Ethyl-1-methyl-6-oxo-1,6-dihydro-pyridin-3-yl)-pyrazol-1-yl]-benzoic acid] | 500 to 5000 nM
Cc1cc(-c2cnn(-c3cc(Oc4ccccc4)ccc3C#N)c2)cn(C)c1=O [Example 258, 2-[4-(1,5-Dimethyl-6-oxo-1,6-dihydro-pyridin-3-yl)-pyrazol-1-yl]-4-phenoxy-benzonitrile] | < 500 nM
Cc1cc(-c2cnn(-c3cc(Oc4ccccc4)ccc3C(=O)O)c2)cn(C)c1=O [Example 259, 2-[4-(1,5-Dimethyl-6-oxo-1,6-dihydro-pyridin-3-yl)-pyrazol-1-yl]-4-phenoxy-benzoic acid] | > 5000 nM
CCOc1cc(=O)n(C)cc1-c1cnn(-c2ccccc2C#N)c1 [Example 281, 2-(4-(4-ethoxy-1-methyl-6-oxo-1,6-dihydropyridin-3-yl)-1H-pyrazol-1-yl)benzonitrile] | < 500 nM
CCOc1cc(=O)n(C)cc1-c1cnn(-c2ccccc2C(N)=O)c1 [Example 282, 2-(4-(4-ethoxy-1-methyl-6-oxo-1,6-dihydropyridin-3-yl)-1H-pyrazol-1-yl)benzamide] | < 500 nM
Cn1cc(-c2cnn(-c3ccccc3C#N)c2)c(OCCN2CCOCC2)cc1=O [Example 283, 2-(4-(1-methyl-4-(2-morpholinoethoxy)-6-oxo-1,6-dihydropyridin-3-yl)-1H-pyrazol-1-yl)benzonitrile] | < 500 nM
Cn1ccc(-c2cc(=O)n(C)cc2-c2cnn(-c3ccccc3S(C)(=O)=O)c2)cc1=O [Example 284, 5-[1-(2-Methanesulfonyl-phenyl)-1H-pyrazol-4-yl]-1,1′-dimethyl-1H,1′H-[4,4′]bipyridinyl-2,2′-dione] | < 500 nM
Cn1cc(-c2cc(=O)n(C)cc2-c2cnn(-c3ccccc3S(C)(=O)=O)c2)ccc1=O [Example 287] | 500 to 5000 nM

Further lines, results first:

IC50 | SMILES
500 to 5000 nM | COc1cc(-c2cc(=O)n(C)cc2-c2cnn(-c3ccccc3C#N)c2)cc(OC)c1OC [Example 246, 2-{4-[1-Methyl-6-oxo-4-(3,4,5-trimethoxy-phenyl)-1,6-dihydro-pyridin-3-yl]-pyrazol-1-yl}-benzonitrile]
< 500 nM | COc1ccc(C#N)c(-n2cc(-c3cn(C)c(=O)cc3-c3ccc(=O)[nH]c3)cn2)c1 [Example 260, 4-Methoxy-2-[4-(1′-methyl-6,6′-dioxo-1,6,1′,6′-tetrahydro-[3,4′]bipyridinyl-3′-yl)-pyrazol-1-yl]-benzonitrile]
< 500 nM | COc1ccc(C#N)c(-n2cc(-c3cn(C)c(=O)cc3-c3ccccc3)cn2)c1 [Example 261, 4-Methoxy-2-[4-(1-methyl-6-oxo-4-phenyl-1,6-dihydro-pyridin-3-yl)-pyrazol-1-yl]-benzonitrile]
< 500 nM | COc1ccc(C#N)c(-n2cc(-c3cn(C)c(=O)cc3-c3ccc(F)cc3)cn2)c1 [Example 263, 2-{4-[4-(4-Fluoro-phenyl)-1-methyl-6-oxo-1,6-dihydro-pyridin-3-yl]-pyrazol-1-yl}-4-methoxy-benzonitrile]
< 500 nM | COc1ccc(C#N)c(-n2cc(-c3cn(C)c(=O)cc3-c3ccc(OC)nc3)cn2)c1 [Example 264, 4-Methoxy-2-[4-(6-methoxy-1′-methyl-6′-oxo-1′,6′-dihydro-[3,4′]bipyridinyl-3′-yl)-pyrazol-1-yl]-benzonitrile]
< 500 nM | CCOc1ccc(-c2cc(=O)n(C)cc2-c2cnn(-c3cc(OC)ccc3C#N)c2)cn1 [Example 265, 2-[4-(6-Ethoxy-1′-methyl-6′-oxo-1′,6′-dihydro-[3,4′]bipyridinyl-3′-yl)-pyrazol-1-yl]-4-methoxy-benzonitrile]
< 500 nM | COc1ccc(C#N)c(-n2cc(-c3cn(C)c(=O)cc3-c3ccnc(OC)c3)cn2)c1 [Example 266, 4-Methoxy-2-[4-(2′-methoxy-1-methyl-6-oxo-1,6-dihydro-[4,4′]bipyridinyl-3-yl)-pyrazol-1-yl]-benzonitrile]
< 500 nM | COc1ccc(C(=O)O)c(-n2cc(-c3cn(C)c(=O)cc3-c3ccccc3)cn2)c1 [Example 267, 4-Methoxy-2-[4-(1-methyl-6-oxo-4-phenyl-1,6-dihydro-pyridin-3-yl)-pyrazol-1-yl]-benzoic acid]
< 500 nM | COc1ccc(C(=O)O)c(-n2cc(-c3cn(C)c(=O)cc3-c3ccc(F)cc3)cn2)c1 [Example 269, 2-{4-[4-(4-Fluoro-phenyl)-1-methyl-6-oxo-1,6-dihydro-pyridin-3-yl]-pyrazol-1-yl}-4-methoxy-benzoic acid]
< 500 nM | COc1ccc(C(=O)O)c(-n2cc(-c3cn(C)c(=O)cc3-c3ccc(OC)nc3)cn2)c1 [Example 270, 4-Methoxy-2-[4-(6-methoxy-1′-methyl-6′-oxo-1′,6′-dihydro-[3,4′]bipyridinyl-3∝-yl)-pyrazol-1-yl]-benzoic acid]
< 500 nM | CCOc1ccc(-c2cc(=O)n(C)cc2-c2cnn(-c3cc(OC)ccc3C(=O)O)c2)cn1 [Example 271, 2-[4-(6-Ethoxy-1′-methyl-6′-oxo-1′,6′-dihydro-[3,4′]bipyridinyl-3′-yl)-pyrazol-1-yl]-4-methoxy-benzoic acid]
< 500 nM | COc1ccc(C(=O)O)c(-n2cc(-c3cn(C)c(=O)cc3-c3ccnc(OC)c3)cn2)c1 [Example 272, 4-Methoxy-2-[4-(2′-methoxy-1-methyl-6-oxo-1,6-dihydro-[4,4′]bipyridinyl-3-yl)-pyrazol-1-yl]-benzoic acid]
< 500 nM | COc1ccc(-c2cc(=O)n(C)cc2-c2cnn(-c3cccc(F)c3C#N)c2)cn1 [Example 274, 2-Fluoro-6-[4-(6-methoxy-1′-methyl-6′-oxo-1′,6′-dihydro-[3,4′]bipyridinyl-3′-yl)-pyrazol-1-yl]-benzonitrile]
< 500 nM | Cn1cc(-c2cnn(-c3cccc(F)c3C#N)c2)c(-c2ccc(Cl)cc2)cc1=O [Example 275, 2-{4-[4-(4-Chloro-phenyl)-1-methyl-6-oxo-1,6-dihydro-pyridin-3-yl]-pyrazol-1-yl}-6-fluoro-benzonitrile]
< 500 nM | Cn1ccc(-c2cc(=O)n(C)cc2-c2cnn(-c3cccc(Cl)c3C#N)c2)cc1=O [Example 276, 2-Chloro-6-[4-(1,1′-dimethyl-6,2′-dioxo-1,6,1,′,2′-tetrahydro-[4,4′]bipyridinyl-3-yl)-pyrazol-1-yl]-benzonitrile]
< 500 nM | COc1ccc(-c2cc(=O)n(C)cc2-c2cnn(-c3cccc(Cl)c3C#N)c2)cn1 [Example 277, 2-Chloro-6-[4-(6-methoxy-1′-methyl-6′-oxo-1′,6′-dihydro-[3,4′]bipyridinyl-3′-yl)-pyrazol-1-yl]-benzonitrile]
< 500 nM | COc1cc(-c2cc(=O)n(C)cc2-c2cnn(-c3cccc(F)c3C#N)c2)ccc1C [Example 278, 2-fluoro-6-(4-(4-(3-methoxy-4-methylphenyl)-1-methyl-6-oxo-1,6-dihydro-pyridin-3-yl)-1H-pyrazol-1-yl)benzonitrile]
< 500 nM | COc1cc(-c2cc(=O)n(C)cc2-c2cnn(-c3cccc(Cl)c3C#N)c2)ccc1C [Example 279, 2-chloro-6-(4-(4-(3-methoxy-4-methylphenyl)-1-methyl-6-oxo-1,6-dihydropyridin-3-yl)-1H-pyrazol-1-yl)benzonitrile]
< 500 nM | CCc1ncc(-c2cc(=O)n(C)cc2-c2cnn(-c3cccc(Cl)c3C#N)c2)cn1 [Example 280, 2-chloro-6-(4-(4-(2-ethylpyrimidin-5-yl)-1-methyl-6-oxo-1,6-dihydropyridin-3-yl)-1H-pyrazol-1-yl)benzonitrile]
< 500 nM | COc1ccc(-c2cc(=O)n(C)cc2-c2cnn(-c3ccccc3S(C)(=O)=O)c2)cn1 [Example 285, 5′-[1-(2-Methanesulfonyl-phenyl)-1H-pyrazol-4-yl]-6-methoxy-1′-methyl-1′H-[3,4′]bipyridinyl-2′-one]
